Source: the supplement of paper PMC10307832

Legend:
Experiment in all cases: relative viability (nuclei count vs DMSO), 5 days (fraction); higher = more cells survive
[1] = compound: C=CCn1c(=O)c2cnc(Nc3ccc(N4CCN(C)CC4)cc3)nc2n1-c1cccc(C(C)(C)O)n1 [Adavosertib] + O=C(CCCCCCC(=O)Nc1ccccc1)NO [Vorinostat] (partner 1 µM)
Procedure, shortened: (§1)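 Relative viability divides the nuclei count in treated wells by that in vehicle wells. Lung cancer cell lines were seeded in 1536-well plates, dosed by pin tool the next day, and fixed and stained after 5 days in one step with final 0.05% Triton X-100, 1% formaldehyde and 1 ug/ml Hoechst. Dosing was a single drug or a fixed anchor-drug dose plus five library-drug doses (not always all listed) in √10 steps, and values are medians of duplicate plates imaged at 4×.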

[2] = compound: COc1nc(N)nc2c1ncn2[C@@H]1O[C@H](CO)[C@@H](O)[C@@H]1O [Nelarabine] + O=C(CCCCCCC(=O)Nc1ccccc1)NO [Vorinostat] (partner 1 µM)
Procedure, shortened: as §1

[3] = compound: COc1nc(N)nc2c1ncn2[C@@H]1O[C@H](CO)[C@@H](O)[C@@H]1O [Nelarabine] + Cc1nc(Nc2ncc(C(=O)Nc3c(C)cccc3Cl)s2)cc(N2CCN(CCO)CC2)n1 [Dasatinib] (partner 0.075 µM)
Procedure, shortened: as §1

[4] = compound: COc1nc(N)nc2c1ncn2[C@@H]1O[C@H](CO)[C@@H](O)[C@@H]1O [Nelarabine] + Nc1ncn([C@H]2C[C@H](O)[C@@H](CO)O2)c(=O)n1 [Decitabine] (partner 2 µM)
Procedure, shortened: as §1

RERF-LC-KJ
relative viability ([1]; first compound 0.01 µM): 0.65
relative viability ([1]; first compound 0.03162 µM): 0.708
relative viability ([1]; first compound 0.1 µM): 0.629
relative viability ([1]; first compound 0.3162 µM): 0.654
relative viability ([2]; first compound 0.01 µM): 0.749
relative viability ([2]; first compound 0.03162 µM): 0.754
relative viability ([2]; first compound 0.1 µM): 0.623
relative viability ([2]; first compound 0.3162 µM): 0.72
relative viability ([2]; first compound 1 µM): 0.727
relative viability ([3]; first compound 0.01 µM): 0.824
relative viability ([3]; first compound 0.03162 µM): 0.884
relative viability ([3]; first compound 0.1 µM): 0.716
relative viability ([3]; first compound 0.3162 µM): 0.808
relative viability ([3]; first compound 1 µM): 0.761
relative viability ([4]; first compound 0.01 µM): 0.764
relative viability ([4]; first compound 0.03162 µM): 0.639
relative viability ([4]; first compound 0.1 µM): 0.705
relative viability ([4]; first compound 0.3162 µM): 0.699
relative viability ([4]; first compound 1 µM): 0.711

NCI-H441
relative viability ([1]; first compound 0.01 µM): 0.848
relative viability ([1]; first compound 0.03162 µM): 0.829
relative viability ([1]; first compound 0.1 µM): 0.881
relative viability ([1]; first compound 0.3162 µM): 0.72
relative viability ([2]; first compound 0.01 µM): 0.749
relative viability ([2]; first compound 0.03162 µM): 0.814
relative viability ([2]; first compound 0.1 µM): 1.02
relative viability ([2]; first compound 0.3162 µM): 0.886
relative viability ([2]; first compound 1 µM): 0.793
relative viability ([3]; first compound 0.01 µM): 0.598
relative viability ([3]; first compound 0.03162 µM): 0.516
relative viability ([3]; first compound 0.1 µM): 0.43
relative viability ([3]; first compound 0.3162 µM): 0.596
relative viability ([3]; first compound 1 µM): 0.784
relative viability ([4]; first compound 0.01 µM): 0.214
relative viability ([4]; first compound 0.03162 µM): 0.222
relative viability ([4]; first compound 0.1 µM): 0.23
relative viability ([4]; first compound 0.3162 µM): 0.231
relative viability ([4]; first compound 1 µM): 0.22

NCI-H1666
relative viability ([1]; first compound 0.01 µM): 1.06
relative viability ([1]; first compound 0.03162 µM): 0.865
relative viability ([1]; first compound 0.1 µM): 0.935
relative viability ([1]; first compound 0.3162 µM): 1.01
relative viability ([2]; first compound 0.01 µM): 1.03
relative viability ([2]; first compound 0.03162 µM): 1.03
relative viability ([2]; first compound 0.1 µM): 1.18
relative viability ([2]; first compound 0.3162 µM): 1.09
relative viability ([2]; first compound 1 µM): 0.964
relative viability ([3]; first compound 0.01 µM): 0.835
relative viability ([3]; first compound 0.03162 µM): 0.855
relative viability ([3]; first compound 0.1 µM): 0.719
relative viability ([3]; first compound 0.3162 µM): 0.878
relative viability ([3]; first compound 1 µM): 0.934
relative viability ([4]; first compound 0.01 µM): 0.651
relative viability ([4]; first compound 0.03162 µM): 0.843
relative viability ([4]; first compound 0.1 µM): 0.736
relative viability ([4]; first compound 0.3162 µM): 0.754
relative viability ([4]; first compound 1 µM): 0.668

NCI-H1755
relative viability ([1]; first compound 0.01 µM): 0.935
relative viability ([1]; first compound 0.03162 µM): 0.864
relative viability ([1]; first compound 0.1 µM): 0.682
relative viability ([1]; first compound 0.3162 µM): 0.546
relative viability ([2]; first compound 0.01 µM): 0.954
relative viability ([2]; first compound 0.03162 µM): 0.742
relative viability ([2]; first compound 0.1 µM): 0.682
relative viability ([2]; first compound 0.3162 µM): 0.861
relative viability ([2]; first compound 1 µM): 0.873
relative viability ([3]; first compound 0.01 µM): 0.457
relative viability ([3]; first compound 0.03162 µM): 0.349
relative viability ([3]; first compound 0.1 µM): 0.135
relative viability ([3]; first compound 0.3162 µM): 0.506
relative viability ([3]; first compound 1 µM): 0.479
relative viability ([4]; first compound 0.01 µM): 0.706
relative viability ([4]; first compound 0.03162 µM): 0.811
relative viability ([4]; first compound 0.1 µM): 0.734
relative viability ([4]; first compound 0.3162 µM): 0.639
relative viability ([4]; first compound 1 µM): 0.737

COR-L23
relative viability ([1]; first compound 0.01 µM): 0.486
relative viability ([1]; first compound 0.03162 µM): 0.406
relative viability ([1]; first compound 0.1 µM): 0.386
relative viability ([1]; first compound 0.3162 µM): 0.166
relative viability ([2]; first compound 0.01 µM): 0.471
relative viability ([2]; first compound 0.03162 µM): 0.416
relative viability ([2]; first compound 0.1 µM): 0.511
relative viability ([2]; first compound 0.3162 µM): 0.427
relative viability ([2]; first compound 1 µM): 0.456
relative viability ([3]; first compound 0.01 µM): 0.611
relative viability ([3]; first compound 0.03162 µM): 0.442
relative viability ([3]; first compound 0.1 µM): 0.502
relative viability ([3]; first compound 0.3162 µM): 0.543
relative viability ([3]; first compound 1 µM): 0.402
relative viability ([4]; first compound 0.01 µM): 0.532
relative viability ([4]; first compound 0.03162 µM): 0.381
relative viability ([4]; first compound 0.1 µM): 0.408
relative viability ([4]; first compound 0.3162 µM): 0.482
relative viability ([4]; first compound 1 µM): 0.446

SK-LU-1
relative viability ([1]; first compound 0.01 µM): 0.734
relative viability ([1]; first compound 0.03162 µM): 0.831
relative viability ([1]; first compound 0.1 µM): 0.666
relative viability ([1]; first compound 0.3162 µM): 0.453
relative viability ([2]; first compound 0.01 µM): 0.789
relative viability ([2]; first compound 0.03162 µM): 0.585
relative viability ([2]; first compound 0.1 µM): 0.924
relative viability ([2]; first compound 0.3162 µM): 0.94
relative viability ([2]; first compound 1 µM): 0.845
relative viability ([3]; first compound 0.01 µM): 0.179
relative viability ([3]; first compound 0.03162 µM): 0.105
relative viability ([3]; first compound 0.1 µM): 0.142
relative viability ([3]; first compound 0.3162 µM): 0.171
relative viability ([3]; first compound 1 µM): 0.165
relative viability ([4]; first compound 0.01 µM): 0.815
relative viability ([4]; first compound 0.03162 µM): 0.574
relative viability ([4]; first compound 0.1 µM): 0.638
relative viability ([4]; first compound 0.3162 µM): 0.822
relative viability ([4]; first compound 1 µM): 0.597

SW 900
relative viability ([1]; first compound 0.01 µM): 0.445
relative viability ([1]; first compound 0.03162 µM): 0.492
relative viability ([1]; first compound 0.1 µM): 0.424
relative viability ([1]; first compound 0.3162 µM): 0.268
relative viability ([2]; first compound 0.01 µM): 0.471
relative viability ([2]; first compound 0.03162 µM): 0.567
relative viability ([2]; first compound 0.1 µM): 0.795
relative viability ([2]; first compound 0.3162 µM): 0.628
relative viability ([2]; first compound 1 µM): 0.448
relative viability ([3]; first compound 0.01 µM): 0.555
relative viability ([3]; first compound 0.03162 µM): 0.439
relative viability ([3]; first compound 0.1 µM): 0.524
relative viability ([3]; first compound 0.3162 µM): 0.623
relative viability ([3]; first compound 1 µM): 0.639
relative viability ([4]; first compound 0.01 µM): 0.415
relative viability ([4]; first compound 0.03162 µM): 0.399
relative viability ([4]; first compound 0.1 µM): 0.398
relative viability ([4]; first compound 0.3162 µM): 0.39
relative viability ([4]; first compound 1 µM): 0.41

PC-3 [JPC-3]
relative viability ([1]; first compound 0.03162 µM): 0.756
relative viability ([1]; first compound 0.1 µM): 0.621
relative viability ([1]; first compound 0.3162 µM): 0.753
relative viability ([2]; first compound 0.01 µM): 0.927
relative viability ([2]; first compound 0.03162 µM): 0.924
relative viability ([2]; first compound 0.1 µM): 0.918
relative viability ([2]; first compound 0.3162 µM): 0.957
relative viability ([2]; first compound 1 µM): 0.709
relative viability ([3]; first compound 0.01 µM): 1.03
relative viability ([3]; first compound 0.03162 µM): 1.01
relative viability ([3]; first compound 0.1 µM): 0.938
relative viability ([3]; first compound 0.3162 µM): 1.04
relative viability ([3]; first compound 1 µM): 0.97
relative viability ([4]; first compound 0.01 µM): 0.84
relative viability ([4]; first compound 0.03162 µM): 0.81
relative viability ([4]; first compound 0.1 µM): 0.843
relative viability ([4]; first compound 0.3162 µM): 0.799
relative viability ([4]; first compound 1 µM): 0.872

EKVX
relative viability ([1]; first compound 0.01 µM): 0.843
relative viability ([1]; first compound 0.03162 µM): 0.718
relative viability ([1]; first compound 0.1 µM): 0.697
relative viability ([1]; first compound 0.3162 µM): 0.682
relative viability ([2]; first compound 0.01 µM): 0.81
relative viability ([2]; first compound 0.03162 µM): 0.667
relative viability ([2]; first compound 0.1 µM): 0.585
relative viability ([2]; first compound 0.3162 µM): 0.817
relative viability ([2]; first compound 1 µM): 0.788
relative viability ([3]; first compound 0.01 µM): 0.509
relative viability ([3]; first compound 0.03162 µM): 0.468
relative viability ([3]; first compound 0.1 µM): 0.396
relative viability ([3]; first compound 0.3162 µM): 0.575
relative viability ([3]; first compound 1 µM): 0.608
relative viability ([4]; first compound 0.01 µM): 0.373
relative viability ([4]; first compound 0.03162 µM): 0.266
relative viability ([4]; first compound 0.1 µM): 0.356
relative viability ([4]; first compound 0.3162 µM): 0.292
relative viability ([4]; first compound 1 µM): 0.571
